{"source": "patent US20250195492A1", "about": "“USE OF IPTACOPAN FOR THE TREATMENT OF LUPUS NEPHRITIS” (Novartis AG, priority 2022, published 2025)", "key": {"[1]": {"test_system": "alternative pathway", "experiment": "Wieslab assay (least sensitive alternative pathway biomarker), FIH trial CLNP023X2101", "format": "in vivo, human", "conditions": "200 mg b.i.d.", "experimental": "The study will first investigate the treatment effect of iptacopan 200 mg b.i.d. on top of SoC compared to SoC alone (Part 1). This dose was chosen based on the least sensitive alternative pathway biomarker (Wieslab assay); it ensures >90% target inhibition in more than 70% of individuals, as determined from FIH trial CLNP023X2101. Dose range finding with doses between 10 to 200 mg b.i.d was performed in Phase 2 studies in IgAN, C3G and PNH."}, "[2]": {"experiment": "Healthy volunteer studies CLNP023X2101 and CLNP023X1102 (SAD and MAD)", "format": "in vivo"}, "[3]": {"test_system": "PNH patients", "experiment": "Phase 2 studies in PNH (CLNP023X2201 add-on to eculizumab, CLNP023X2204 monotherapy)", "format": "in vivo, human"}, "[4]": {"test_system": "patients with IgAN", "experiment": "Phase 2 study in patients with IgAN (CLNP023X2203), interim analysis", "format": "in vivo, human"}, "[5]": {"test_system": "patients with C3G", "experiment": "Phase 2 study in patients with C3G (CLNP023X2202), interim analysis", "format": "in vivo, human", "conditions": "200 mg b.i.d."}, "[6]": {"conditions": "102 subjects, SAD 10 to 400 mg, MAD 10 to 200 mg b.i.d. for 2 weeks"}, "[7]": {"conditions": "200 mg b.i.d., add-on to eculizumab and monotherapy, majority of patients, preliminary data"}, "[8]": {"conditions": "200 mg b.i.d. compared to placebo"}}, "data": [{"smiles": "CCO[C@H]1CCN(Cc2c(OC)cc(C)c3[nH]ccc23)[C@H](c2ccc(C(=O)O)cc2)C1", "note": "[iptacopan, 4-((2S,4S)-(4-ethoxy-1-((5-methoxy-7-methyl-1H-indol-4-yl)methyl)piperidin-2-yl))benzoic acid]", "values": [{"measurement": "proportion of individuals with >90% target inhibition", "setting": "[1]", "result": "more than 70%"}, {"measurement": "target inhibition (Wieslab assay)", "setting": "[1]; reached in more than 70% of individuals", "result": "> 90", "unit": "%"}, {"measurement": "deaths, SAEs, AEs leading to study drug discontinuation", "setting": "[2]; [6]", "result": "No deaths, serious adverse events (SAEs), or adverse events (AEs) leading to study drug discontinuation were observed"}, {"measurement": "tolerability", "setting": "[2]; [6]", "result": "well tolerated"}, {"measurement": "solubility", "setting": "[2]; as reported from the healthy volunteer studies", "result": "high"}, {"measurement": "absorption", "setting": "[2]; healthy volunteers, SAD/MAD", "result": "fast"}, {"measurement": "LDH levels", "setting": "[3]; [7]", "result": "reduction in LDH levels"}, {"measurement": "hemoglobin in the absence of RBC transfusions", "setting": "[3]; [7]", "result": "improvements in hemoglobin"}, {"measurement": "hemolysis", "setting": "[3]; 200 mg b.i.d., preliminary data", "result": "control of both intra- and extravascular hemolysis"}, {"measurement": "safety and tolerability", "setting": "[3]; both PNH studies", "result": "overall safe and well tolerated"}, {"measurement": "safety profile", "setting": "[4]", "result": "overall well-tolerated safety profile"}, {"measurement": "UPCR", "setting": "[4]; [8]", "result": "clinically meaningful UPCR reduction"}, {"measurement": "eGFR levels", "setting": "[4]; [8]", "result": "stable/improving"}, {"measurement": "dose-response effect on UPCR", "setting": "[4]; at 90 days, primary endpoint", "result": "statistically significant dose-response effect"}, {"measurement": "tolerability", "setting": "[5]", "result": "well-tolerated"}, {"measurement": "eGFR", "setting": "[5]; at 12 weeks", "result": "stabilization"}, {"measurement": "reduction in UPCR", "setting": "[5]; at 12 weeks", "result": 49, "unit": "%"}]}]}
